Read-outs that look alike come from different tables or passages of the source.
What was measured:
[1] = molecular target: T1, SHV-5 (Klebsiella pneumoniae, UniProt P0A3M1); assay: β-lactamase enzyme inhibition assay, SHV-5 (cefotaxime substrate); type: biochemical
T1 construct: made in house; host or cells: E. coli BL21(DE3)
How it was run: (§1)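 Untagged enzyme from E. coli BL21(DE3), purified by Capto S then Superdex 75; 15 min 37 °C preincubation with inhibitor; KPC-2 read with imipenem at 300 nm, SHV-5 with cefotaxime at 260 nm, OXA-1 with nitrocefin 100 μM final at 486 nm; 10 min kinetic read; IC50 vs uninhibited wells.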

[2] = molecular target: OXA-48 (UniProt Q6XEC0); assay: β-lactamase enzyme inhibition assay, Class D oxacillinase; type: biochemical; conditions: read-out: OXA-48
[3] = tested on: E. cloacae expressing the Class C P99; assay: Broth microdilution MIC assay with ceftazidime, E. cloacae P99; type: cell-based; conditions: Fixed CAZ (ceftazidime) 4 μg/mL; E. cl. 144200 p99 AmpC
How it was run: (§2)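 In cation-adjusted Mueller Hinton broth, bacteria pre-grown 3-5 hours were exposed to test compound (2-fold, 16–0.125 μg/mL) plus a static 4 μg/ml β-lactam. A panel of control β-lactams was run alongside, and the compound MIC was judged by eye following 16-20 hours at 37° C.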

[4] = tested on: E. coli expressing the Class A Extended Spectrum Beta-Lactamase (ESBL) CTX-M-15; assay: Broth microdilution MIC assay with ceftazidime, E. coli CTX-M-15; type: cell-based; conditions: Fixed CAZ (ceftazidime) 4 μg/mL; E. coli ESBL4 CTX-M-15
How it was run: as §2

[5] = molecular target: T2, AmpC (Enterobacter cloacae, UniProt P05364); assay: β-lactamase enzyme inhibition assay, p99 AmpC (nitrocefin substrate); type: biochemical
T2 construct: made in house; host or cells: E. coli BL21(DE3)
How it was run: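 Untagged enzyme from E. coli BL21(DE3), purified by Capto S then Superdex 75; 15 min 37 °C preincubation with inhibitor; 10 min kinetic read; IC50 vs uninhibited wells.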

[6] = tested on: P. aeruginosa expressing the Class B carbapenemase VIM-2; assay: Broth microdilution MIC assay with meropenem, P. aeruginosa VIM-2; type: cell-based; conditions: Fixed Mero (meropenem) 4 μg/mL; P. aerug. 2775 VIM-2
How it was run: as §2

[7] = tested on: K. pneumoniae expressing the Class A carbapenemase KPC-2; assay: Broth microdilution MIC assay with meropenem, K. pneumoniae KPC-2; type: cell-based; conditions: Fixed Mero (meropenem) 4 μg/mL; K. p. 156319 KPC-3
How it was run: as §2

[8] = molecular target: T3, VIM-2 (Escherichia coli, UniProt Q5U7L7); assay: β-lactamase enzyme inhibition assay, VIM-2 (nitrocefin substrate); type: biochemical
T3 construct: made in house; host or cells: E. coli BL21(DE3)
How it was run: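 Metallo-β-lactamase VIM-2 activity was tracked spectrophotometrically at 486 nm with 100 μM nitrocefin over 10 min, following 15 min preincubation with compound at 37 °C; inhibition was calculated per concentration.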

[9] = tested on: K. pneumoniae producing the Class D carbapenemase OXA-48; assay: Broth microdilution MIC assay with meropenem, K. pneumoniae OXA-48; type: cell-based; conditions: Fixed Mero (meropenem) 4 μg/mL; K. p. 11978 OXA-48
How it was run: as §2

[10] = molecular target: T4, KPC-2 (Klebsiella pneumoniae, UniProt Q9F663); assay: β-lactamase enzyme inhibition assay, KPC-2 (imipenem substrate); type: biochemical
T4 construct: made in house; host or cells: E. coli BL21(DE3)
How it was run: as §1

[11] = tested on: K. pneumoniae expressing the class A carbapenemase KPC-2 and the class B carbapenemase VIM-4; assay: Broth microdilution MIC assay with meropenem, K. pneumoniae KPC-2 and VIM-4; type: cell-based; conditions: Fixed Mero (meropenem) 4 μg/mL; K. p. A-1797 KPC-2 VIM-4
How it was run: as §2

[12] = Class B, nitrocefin substrate, 486 nm, read-out: VIM-2
[13] = Class A, imipenem substrate, 300 nm, read-out: KPC-2

T1 sequence (P0A3M1 22-286): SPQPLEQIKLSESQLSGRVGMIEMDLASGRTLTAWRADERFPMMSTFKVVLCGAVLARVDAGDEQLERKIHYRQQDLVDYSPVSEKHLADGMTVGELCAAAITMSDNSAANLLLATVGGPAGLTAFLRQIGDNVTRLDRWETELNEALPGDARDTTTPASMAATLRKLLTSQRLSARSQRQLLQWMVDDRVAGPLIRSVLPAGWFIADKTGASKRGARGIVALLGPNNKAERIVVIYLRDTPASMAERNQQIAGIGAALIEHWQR
T4 sequence (Q9F663 25-293, looked up): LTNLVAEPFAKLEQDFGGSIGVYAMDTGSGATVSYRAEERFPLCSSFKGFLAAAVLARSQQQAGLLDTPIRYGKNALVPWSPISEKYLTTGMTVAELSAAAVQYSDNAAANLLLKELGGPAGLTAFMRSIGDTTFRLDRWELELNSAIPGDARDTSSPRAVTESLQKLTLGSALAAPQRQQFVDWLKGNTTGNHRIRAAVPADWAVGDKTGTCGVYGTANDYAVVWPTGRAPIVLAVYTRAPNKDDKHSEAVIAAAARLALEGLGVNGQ
T2 sequence (P05364 21-381): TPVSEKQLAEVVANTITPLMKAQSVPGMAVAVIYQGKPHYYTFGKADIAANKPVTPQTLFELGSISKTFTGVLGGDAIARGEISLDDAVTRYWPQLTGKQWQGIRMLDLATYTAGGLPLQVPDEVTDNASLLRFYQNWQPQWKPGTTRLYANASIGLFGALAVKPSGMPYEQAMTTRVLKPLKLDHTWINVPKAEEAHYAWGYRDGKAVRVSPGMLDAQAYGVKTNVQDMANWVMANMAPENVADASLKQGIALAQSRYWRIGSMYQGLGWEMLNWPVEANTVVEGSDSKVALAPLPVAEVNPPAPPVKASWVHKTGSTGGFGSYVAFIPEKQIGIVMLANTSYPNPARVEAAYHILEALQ

SMILES	IC50 [1]	IC50 [2]	MIC (μg/mL) of Exemplary Compounds in presence of fixed β-lactams: E. cl. 144200 p99 AmpC [3]	MIC (μg/mL) of Exemplary Compounds in presence of fixed β-lactams: E. coli ESBL4 CTX-M-15 [4]	IC50 [5]	MIC (μg/mL) of Exemplary Compounds in presence of fixed β-lactams: P. aerug. 2775 VIM-2 [6]	MIC (μg/mL) of Exemplary Compounds in presence of fixed β-lactams: K. p. 156319 KPC-3 [7]	IC50 [8]	MIC (μg/mL) of Exemplary Compounds in presence of fixed β-lactams: K. p. 11978 OXA-48 [9]	IC50 [10]	MIC (μg/mL) of Exemplary Compounds in presence of fixed β-lactams: K. p. A-1797 KPC-2 VIM-4 [11]	IC50 [8, 12]	IC50 [10, 13]
NCCn1cc(Cn2nnnc2CC(=O)N[C@H]2Cc3cccc(C(=O)O)c3OB2O)nn1 [Example 123, (R)-3-(2-(1-((1-(2-aminoethyl)-1H-1,2,3-triazol-4-yl)methyl)-1H-tetrazol-5-yl)acetamido)-2-hydroxy-3,4-dihydro-2H-benzo[e][1,2]oxaborinine-8-carboxylic acid]	< 100 nM	100 to 1000 nM	C (C represents an MIC of <1 μg/mL)	C (C represents an MIC of <1 μg/mL)	< 100 nM	A (A represents an MIC>16 μg/mL)	C (C represents an MIC of <1 μg/mL)	1000 to 10000 nM	B (B represents an MIC between 1 and 16 μg/mL inclusive)	100 to 1000 nM	B (B represents an MIC between 1 and 16 μg/mL inclusive)	–	–
NCCn1cc(Cn2nnc(CC(=O)N[C@H]3Cc4cccc(C(=O)O)c4OB3O)n2)nn1 [Example 124, (R)-3-(2-(2-((1-(2-aminoethyl)-1H-1,2,3-triazol-4-yl)methyl)-2H-tetrazol-5-yl)acetamido)-2-hydroxy-3,4-dihydro-2H-benzo[e][1,2]oxaborinine-8-carboxylic acid]	< 100 nM	100 to 1000 nM	C (C represents an MIC of <1 μg/mL)	C (C represents an MIC of <1 μg/mL)	< 100 nM	A (A represents an MIC>16 μg/mL)	B (B represents an MIC between 1 and 16 μg/mL inclusive)	–	B (B represents an MIC between 1 and 16 μg/mL inclusive)	–	B (B represents an MIC between 1 and 16 μg/mL inclusive)	1000 to 10000 nM	< 100 nM
NCc1ncn(CC(=O)N[C@H]2Cc3cccc(C(=O)O)c3OB2O)n1 [Example 125]	100 to 1000 nM	1000 to 10000 nM	C (C represents an MIC of <1 μg/mL)	C (C represents an MIC of <1 μg/mL)	< 100 nM	C (C represents an MIC of <1 μg/mL)	C (C represents an MIC of <1 μg/mL)	–	B (B represents an MIC between 1 and 16 μg/mL inclusive)	–	C (C represents an MIC of <1 μg/mL)	< 100 nM	< 100 nM
